Laboratory results from patent US20100159496A1, “EVALUATION METHOD FOR PHOTOSYNTHESIS SAMPLE, EVALUATION SYSTEM FOR PHOTOSYNTHESIS SAMPLE, AND EVALUATION PROGRAM FOR PHOTOSYNTHESIS SAMPLE” (HAMAMATSU PHOTONICS K.K., priority 2006, published 2010).

Tested on: green algae
Assay: Delayed luminescence of green algae in different redox states (first/second excitation light, waiting time), integration values
Type: cell-based, Pseudokircheneriella subcapitata
Details: for percentage (% oQ) of the oxidized plastoquinone: DBMIB 322 μg/L (FIG. 43)
Text: In determining the relationship between the waiting time and the temporal variation of delayed luminescence, first, white light of 500 μmol·m−2·s−1 was illuminated for 10 seconds onto the measurement sample as the first excitation light for saturating photosynthetic electron transport (first illumination condition). Thereafter, a step of not illuminating light onto the measurement sample (referred to hereinafter as “waiting”) was provided and then red light of 50 μmol·m−2·s−1 was illuminated for 2 seconds as the second excitation light. The second excitation light can make delayed luminescence be emitted while hardly changing the redox state of the photosynthetic sample. Such a process is performed repeatedly with the waiting being changed to 0, 2, 10, 30, and 60 seconds. In addition, measurement is also made for a case where the illumination of the first excitation light and waiting are not executed and just the illumination of the second excitation light is performed, that is, for the case where the photosynthetic electron transport is not saturated.
In the following, a case of computing an integration value for each of an integration range (measurement time period) of 0.1 to 0.5 seconds of time after excitation, an integration range of 0.6 to 10 seconds after excitation, and an integration range of 10.1 seconds to 50 seconds after excitation shall be described. Setting of the integration ranges is not restricted to the above. The number of integration ranges may any number as long as it is no less than 1. In a case where a plurality of integration ranges are set up, the respective integration ranges may be made equal or not equal in time width. Furthermore, the integration ranges may not only be mutually set apart by a predetermined time as in the present embodiment but integration ranges may be set so as to be adjacent each other (for example, an integration range of 0.1 to 0.5 seconds of time after excitation and an integration range of 0.5 seconds to 10 seconds of time after excitation may be set up) and integration ranges may be set so as to overlap with each other (for example, an integration range of 0.1 to 0.5 seconds of time after excitation and an integration range of 0.4 seconds to 10 seconds of time after excitation may be set up).
In each graph of FIG. 29, the abscissa expresses the measurement condition and the ordinate expresses the integration value (counts) of the delayed luminescence intensity. In the following, the integration value in the integration range of 0.1 to 0.5 seconds of time after excitation, the integration value in the integration range of 0.6 to 10 seconds after excitation, and the integration value in the integration range of 10.1 seconds to 50 seconds after excitation shall be referred to respectively as integration value 1, integration value 2, and integration value 3. FIGS. 29A, 29B, and 29C are graphs respectively of the integration value 1, integration value 2, and integration value 3.
First, a method for computing an evaluation value for evaluating the electron accumulation state of the PSII of the photosynthetic sample shall be described. As one such type of evaluation value, there is, for example, a PSII electron accumulation change (en), which indicates how the electron accumulation in the PSII has changed. This value ell can be determined as: (integration value 1 of the evaluation sample)/(integration value 1 of the standard sample)×100. The PSII electron accumulation change (eII) can be computed for the respective conditions of non-saturation, 0-second waiting time, 10-second waiting time, and 60-second waiting time.
As mentioned above, the transient increase of the integration value 1 in the 0-second waiting time reflects increase of the electron accumulation in the PSII due to the takeout of electrons from the PSII becoming rate-limiting. […]

[1] = all conditions (non-saturation, 0-, 10-, 60-second waiting time), DCMU 12 ug/L, Ant-A 0.55 mg/L

| SMILES | integration value 1 (0.1 to 0.5 seconds after excitation) (10-second waiting time, Ant-A 0.55 mg/L) | cyclic electron transport (cI) from the PSI (10-second waiting time, Ant-A 0.55 mg/L (FIG. 44)) | integration value 2 (0.6 to 10 seconds after excitation) compared with standard sample [1] | integration value 3 (10.1 to 50 seconds after excitation) compared with standard sample [1] | PSI electron accumulation change (eI) (non-saturation case, Ant-A 0.55 mg/L, integration value 3 of evaluation sample/standard sample×100 (FIG. 44)) | integration value 1 (0.1 to 0.5 seconds after excitation) compared with standard sample (non-saturation, 0-second and 60-second waiting time, Ant-A 0.55 mg/L) | integration value 2 (0.6 to 10 seconds after excitation) compared with standard sample (0-second waiting time, DBMIB 322 μg/L) | percentage (% oQ) of the oxidized plastoquinone (10-second waiting time) | increase (increment) of integration value 3 at the 10-second waiting time compared with standard sample (10-second waiting time, DBMIB 322 μg/L, Ant-A 0.55 mg/L) | percentage (% oQ) of the oxidized plastoquinone (60-second waiting time) | change (vQ) of redox reaction magnitude sQ (DBMIB 322 μg/L, sQ of evaluation sample/sQ of standard sample (FIG. 43)) | integration value 1 (0.1 to 0.5 seconds after excitation) compared with standard sample (all conditions, DBMIB 322 μg/L) | integration value 3 (10.1 to 50 seconds after excitation) compared with standard sample (non-saturation, 0-second and 60-second waiting time, DBMIB 322 μg/L) | integration value 2 (0.6 to 10 seconds after excitation) compared with standard sample (non-saturation, 10-second and 60-second waiting time, DBMIB 322 μg/L) | integration value 1 (0.1 to 0.5 seconds after excitation) compared with standard sample (0-second waiting time, DCMU 12 ug/L) | PSII electron takeout change (vII) (DCMU 12 ug/L, tII of evaluation sample/tII of standard sample×100 (FIG. 42)) | PSII electron accumulation change (eII) (non-saturation state, DCMU 12 ug/L, integration value 1 of evaluation sample/standard sample×100 (FIG. 42)) | integration value 1 (0.1 to 0.5 seconds after excitation) compared with standard sample (non-saturation, 10-second and 60-second waiting time, DCMU 12 ug/L) |
| --- | --- | --- | --- | --- | --- | --- | --- | --- | --- | --- | --- | --- | --- | --- | --- | --- | --- | --- |
| CCCCCC[C@H]1C(=O)O[C@H](C)[C@H](NC(=O)c2cccc(NC=O)c2O)C(=O)O[C@@H](C)[C@@H]1OC(=O)CC(C)C [Ant-A, Antimycin A] | increased in the same manner as in the 0-second waiting time case | −12 | less than those of the standard sample | less than those of the standard sample | 89 | a large difference was not seen | – | – | – | – | – | – | – | – | – | – | – | – |
| CC1=C(Br)C(=O)C(C(C)C)=C(Br)C1=O [DBMIB, 2,5-dibromo-6-isopropyl-3-methyl-1,4-benzoquinone] | – | – | – | – | – | – | a large difference is not seen | 4 | lower than that of the standard sample | 22 | 30 | greater than those of the standard sample | a large difference was not seen | lower than that of the standard sample | – | – | – | – |
| CN(C)C(=O)Nc1ccc(Cl)c(Cl)c1 [DCMU, 3-(3,4-dichlorophenyl)-1,1-dimethyl-urea] | – | – | less than those of the standard sample | less than those of the standard sample | – | – | – | – | – | – | – | – | – | – | a significant difference was not seen | negative | 188 | nearly twice the values of the standard sample |
